Laboratory results as given in patent US20190225650A1, “PEPTIDOMIMETIC MACROCYCLES AND USE THEREOF IN REGULATING HIF1ALPHA” (AILERON THERAPEUTICS, INC., priority 2013, published 2019).
Bridge positions count the residues as written; N and C are the ends. Square brackets hold non-standard residues; d marks the D form. Peptide text beside a SMILES is read from it. S5 = C=CCCC[C@](C)(N)C(=O)O; Nle = CCCC[C@H](N)C(=O)O; Dap = NC[C@H](N)C(=O)O

System: HRE-bla ME-180 cells
Test: Reporter gene assay (HRE-bla ME-180 HIF reporter, GeneBLAzer)
Format: cell-based, human
Conditions: for EC50: 24 hour normoxia
In short: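 A FRET β-lactamase readout of HIF transcription was used. After compound treatment in 0.3% DMSO/media under normoxic conditions, 20 μl of 6× LiveBLAzer-FRET B/G (CCF4-AM) substrate was added. Plates sat 3 hr at room temperature in the dark and were read at 409 Ex/460Em and 409Ex/530Em on a Synergy 2. Inhibition was compared against DMSO vehicle controls, with chetomin as positive control.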

Compound | 18 h Avg % max inhibition at top conc (HIF Rptr-24 hrs normoxia) (μM) | EC50
CC[C@H](C)[C@H](NC(=O)[C@H](CCCNC(=N)N)NC(=O)[C@H](CC(=O)O)NC(=O)[C@H](CC(C)C)NC(=O)[C@H](C)NC(=O)[C@H](C)NC(=O)[C@]1(C)CCCC=CCCC[C@](C)(NC(=O)[C@H](C)NC(=O)[C@H](CC(C)C)NC(=O)[C@@H](NC(=O)[C@H](CCC(=O)O)NC(=O)[C@H](CCC(=O)O)NC(=O)[C@H](CC(=O)O)NC(=O)[C@@H](NC(=O)[C@H](Cc2ccccc2)NC(C)=O)[C@@H](C)CC)C(C)C)C(=O)N[C@@H](CC(C)C)C(=O)N[C@@H](C(C)C)C(=O)N[C@@H]([C@@H](C)CC)C(=O)N1)C(N)=O [SP-26] (Ac-FIDEEVLA[S5]LVI[S5]AALDRI-NH2; staple 9-13) | ++++ (≥50: ++++) | 5 to 15 µM
CCCC[C@H](NC(=O)[C@H](CC(C)C)NC(=O)[C@@H](NC(=O)[C@H](CCC(=O)O)NC(=O)[C@H](CCC(=O)O)NC(=O)[C@H](CC(=O)O)NC(=O)[C@@H](NC(=O)[C@H](Cc1ccccc1)NC(C)=O)[C@@H](C)CC)C(C)C)C(=O)N[C@@]1(C)CCCC=CCCC[C@@](C)(C(=O)N[C@@H](CCCC)C(=O)N[C@@H](C)C(=O)N[C@@H](CC(C)C)C(=O)N[C@@H](CC(=O)O)C(=O)N[C@@H](CCCNC(=N)N)C(=O)N[C@H](C(N)=O)[C@@H](C)CC)NC(=O)[C@H](CN)NC(=O)[C@H](C(C)C)NC(=O)[C@H](CC(C)C)NC1=O [SP-65] (Ac-FIDEEVL[Nle][S5]LV[Dap][S5][Nle]ALDRI-NH2; staple 9-13) | + (<10: +) | > 30 µM
CCCC[C@H](NC(=O)[C@H](CC(C)C)NC(=O)[C@@H](NC(=O)[C@H](CCC(=O)O)NC(=O)[C@H](CCC(=O)O)NC(=O)[C@H](CC(=O)O)NC(=O)[C@@H](NC(=O)[C@H](Cc1ccccc1)NC(C)=O)[C@@H](C)CC)C(C)C)C(=O)N[C@@]1(C)CCCC=CCCC[C@@](C)(C(=O)N[C@@H](CCCC)C(=O)N[C@@H](C)C(=O)N[C@@H](CC(C)C)C(=O)N[C@@H](CC(=O)O)C(=O)N[C@@H](CCCNC(=N)N)C(=O)N[C@H](C(N)=O)[C@@H](C)CC)NC(=O)[C@H]([C@@H](C)CC)NC(=O)[C@H](C(C)C)NC(=O)[C@H](CC(=O)O)NC1=O [SP-35] (Ac-FIDEEVL[Nle][S5]DVI[S5][Nle]ALDRI-NH2; staple 9-13) | + (<10: +) | > 30 µM
CCCC[C@H](NC(=O)[C@H](CC(C)C)NC(=O)[C@@H](NC(=O)[C@H](CCC(=O)O)NC(=O)[C@H](CCC(=O)O)NC(=O)[C@H](CC(=O)O)NC(=O)[C@@H](NC(=O)[C@H](Cc1ccccc1)NC(C)=O)[C@@H](C)CC)C(C)C)C(=O)N[C@@]1(C)CCCC=CCCC[C@@](C)(C(=O)N[C@@H](CCCC)C(=O)N[C@@H](C)C(=O)N[C@@H](C)C(=O)N[C@@H](CC(=O)O)C(=O)N[C@@H](CCCNC(=N)N)C(=O)N[C@H](C(N)=O)[C@@H](C)CC)NC(=O)[C@H]([C@@H](C)CC)NC(=O)[C@H](C(C)C)NC(=O)[C@H](CC(C)C)NC1=O [SP-22] (Ac-FIDEEVL[Nle][S5]LVI[S5][Nle]AADRI-NH2; staple 9-13) | ++++ (≥50: ++++) | 5 to 15 µM
CCCC[C@H](NC(=O)[C@H](CC(C)C)NC(=O)[C@@H](NC(=O)[C@H](CCC(=O)O)NC(=O)[C@H](CCC(=O)O)NC(=O)[C@H](CC(=O)O)NC(=O)[C@@H](NC(=O)[C@H](Cc1ccccc1)NC(C)=O)[C@@H](C)CC)C(C)C)C(=O)N[C@@]1(C)CCCC=CCCC[C@@](C)(C(=O)N[C@@H](CO)C(=O)N[C@@H](C)C(=O)N[C@@H](CC(C)C)C(=O)N[C@@H](CC(=O)O)C(=O)N[C@@H](CCCNC(=N)N)C(=O)N[C@H](C(N)=O)[C@@H](C)CC)NC(=O)[C@H]([C@@H](C)CC)NC(=O)[C@H](C(C)C)NC(=O)[C@H](CC(C)C)NC1=O [SP-54] (Ac-FIDEEVL[Nle][S5]LVI[S5]SALDRI-NH2; staple 9-13) | ++++ (≥50: ++++) | ≤ 5 µM
CCCC[C@H](NC(=O)[C@]1(C)CCCC=CCCC[C@](C)(NC(=O)[C@H](CC(=O)O)NC(=O)[C@H](CC(C)C)NC(=O)[C@@H](NC(=O)[C@H](CCC(=O)O)NC(=O)[C@H](CCC(=O)O)NC(=O)[C@H](CC(=O)O)NC(=O)[C@@H](NC(=O)[C@H](Cc2ccccc2)NC(C)=O)[C@@H](C)CC)C(C)C)C(=O)N[C@@H](CC(C)C)C(=O)N[C@@H](C(C)C)C(=O)N[C@@H]([C@@H](C)CC)C(=O)N1)C(=O)N[C@@H](C)C(=O)N[C@@H](CC(C)C)C(=O)N[C@@H](CC(=O)O)C(=O)N[C@@H](CCCNC(=N)N)C(=O)N[C@H](C(N)=O)[C@@H](C)CC [SP-34] (Ac-FIDEEVLD[S5]LVI[S5][Nle]ALDRI-NH2; staple 9-13) | ++++ (≥50: ++++) | 5 to 15 µM
CCCC[C@H](NC(=O)[C@H](CC(C)C)NC(=O)[C@@H](NC(=O)[C@H](CCC(=O)O)NC(=O)[C@H](CCC(=O)O)NC(=O)[C@H](CC(=O)O)NC(=O)[C@@H](NC(=O)[C@H](Cc1ccccc1)NC(C)=O)[C@@H](C)CC)C(C)C)C(=O)N[C@@]1(C)CCCC=CCCC[C@@](C)(C(=O)N[C@@H](CCCC)C(=O)N[C@@H](C)C(=O)N[C@@H](CC(C)C)C(=O)N[C@@H](C)C(=O)N[C@@H](CCCNC(=N)N)C(=O)N[C@H](C(N)=O)[C@@H](C)CC)NC(=O)[C@H]([C@@H](C)CC)NC(=O)[C@H](C(C)C)NC(=O)[C@H](CC(C)C)NC1=O [SP-23] (Ac-FIDEEVL[Nle][S5]LVI[S5][Nle]ALARI-NH2; staple 9-13) | ++++ (≥50: ++++) | 5 to 15 µM
CCCC[C@H](NC(=O)[C@H](CC(C)C)NC(=O)[C@@H](NC(=O)[C@H](CCC(=O)O)NC(=O)[C@H](CCC(=O)O)NC(=O)[C@H](CC(=O)O)NC(=O)[C@@H](NC(=O)[C@H](Cc1ccccc1)NC(C)=O)[C@@H](C)CC)C(C)C)C(=O)N[C@@]1(C)CCCC=CCCC[C@@](C)(C(=O)N[C@@H](CCCC)C(=O)N[C@@H](CO)C(=O)N[C@@H](CC(C)C)C(=O)N[C@@H](CC(=O)O)C(=O)N[C@@H](CCCNC(=N)N)C(=O)N[C@H](C(N)=O)[C@@H](C)CC)NC(=O)[C@H]([C@@H](C)CC)NC(=O)[C@H](C(C)C)NC(=O)[C@H](CC(C)C)NC1=O [SP-55] (Ac-FIDEEVL[Nle][S5]LVI[S5][Nle]SLDRI-NH2; staple 9-13) | ++++ (≥50: ++++) | 5 to 15 µM
CCCC[C@H](NC(=O)[C@H](CC(C)C)NC(=O)[C@@H](NC(=O)[C@H](CCC(=O)O)NC(=O)[C@H](CCC(=O)O)NC(=O)[C@H](CC(=O)O)NC(=O)[C@@H](NC(=O)[C@H](Cc1ccccc1)NC(C)=O)[C@@H](C)CC)C(C)C)C(=O)N[C@@]1(C)CCCC=CCCC[C@@](C)(C(=O)N[C@@H](CCCC)C(=O)N[C@@H](C)C(=O)N[C@@H](CC(C)C)C(=O)N[C@@H](CC(=O)O)C(=O)N[C@@H](CCCNC(=N)N)C(=O)N[C@H](C(N)=O)[C@@H](C)CC)NC(=O)[C@H](CO)NC(=O)[C@H](C(C)C)NC(=O)[C@H](CC(C)C)NC1=O [SP-53] (Ac-FIDEEVL[Nle][S5]LVS[S5][Nle]ALDRI-NH2; staple 9-13) | +++ (≤25 but <50: +++) | 5 to 15 µM
CCCC[C@H](NC(=O)[C@H](CC(C)C)NC(=O)[C@@H](NC(=O)[C@H](CCC(=O)O)NC(=O)[C@H](CCC(=O)O)NC(=O)[C@H](CN)NC(=O)[C@@H](NC(=O)[C@H](Cc1ccccc1)NC(C)=O)[C@@H](C)CC)C(C)C)C(=O)N[C@@]1(C)CCCC=CCCC[C@@](C)(C(=O)N[C@@H](CCCC)C(=O)N[C@@H](C)C(=O)N[C@@H](CC(C)C)C(=O)N[C@@H](CC(=O)O)C(=O)N[C@@H](CCCNC(=N)N)C(=O)N[C@H](C(N)=O)[C@@H](C)CC)NC(=O)[C@H]([C@@H](C)CC)NC(=O)[C@H](C(C)C)NC(=O)[C@H](CC(C)C)NC1=O [SP-62] (Ac-FI[Dap]EEVL[Nle][S5]LVI[S5][Nle]ALDRI-NH2; staple 9-13) | ++ (≤10 but <25: ++) | > 30 µM
CCCC[C@H](NC(=O)[C@H](CC(C)C)NC(=O)[C@@H](NC(=O)[C@H](CCC(=O)O)NC(=O)[C@H](CCC(=O)O)NC(=O)[C@H](CC(=O)O)NC(=O)[C@@H](NC(=O)[C@H](Cc1ccccc1)NC(C)=O)[C@@H](C)CC)C(C)C)C(=O)N[C@@]1(C)CCCC=CCCC[C@@](C)(C(=O)N[C@@H](CCCC)C(=O)N[C@@H](C)C(=O)N[C@@H](CC(C)C)C(=O)N[C@@H](CC(=O)O)C(=O)N[C@@H](CCC(=O)O)C(=O)N[C@H](C(N)=O)[C@@H](C)CC)NC(=O)[C@H]([C@@H](C)CC)NC(=O)[C@H](C(C)C)NC(=O)[C@H](CC(C)C)NC1=O [SP-41] (Ac-FIDEEVL[Nle][S5]LVI[S5][Nle]ALDEI-NH2; staple 9-13) | ++++ (≥50: ++++) | 15 to 30 µM
CC[C@H](C)[C@H](NC(=O)[C@H](CCCNC(=N)N)NC(=O)[C@H](CC(=O)O)NC(=O)[C@H](CC(C)C)NC(=O)CNC(=O)[C@H](CCSC)NC(=O)[C@H](CCC(=O)O)NC(=O)[C@@H](NC(=O)[C@@H](NC(=O)[C@H](CC(C)C)NC(=O)[C@H](CO)NC(=O)[C@]1(C)CCCC=CCCC[C@](C)(NC(=O)[C@H](CC(=O)O)NC(=O)[C@@H](NC(=O)[C@H](Cc2ccccc2)NC(C)=O)[C@@H](C)CC)C(=O)N[C@@H](CCC(=O)O)C(=O)N[C@@H](C(C)C)C(=O)N[C@@H](CC(C)C)C(=O)N1)C(C)C)[C@@H](C)CC)C(=O)N[C@@H](CCCCN)C(=O)N[C@@H](CCC(=O)O)C(=O)N[C@@H](CC(C)C)C(=O)N1CCC[C@H]1C(=O)N[C@@H](CCC(=O)O)C(=O)N[C@@H](CC(C)C)C(=O)N[C@@H](Cc1c[nH]c2ccccc12)C(=O)N[C@@H](CC(C)C)C(N)=O [SP-76] (Ac-FID[S5]EVL[S5]SLVIEMGLDRIKELPELWL-NH2; staple 4-8) | + (<10: +) | > 30 µM
